Assay results reported in patent US20190308962A1, “FXR (NR1H4) Modulating Compounds” (GILEAD SCIENCES, INC., priority 2016, published 2019).

What was measured:
[1] = target: T1, human FXR alpha ligand binding domain (Homo sapiens, UniProt Q96RI1); assay: FRET activity assay (ligand mediated cofactor peptide interaction, LANCE); assay type: biochemical; details: GST-FXR-LBD / biotinylated SRC-1 peptide (676-700)
T1 construct: made in house; host or cells: E. coli BL21(DE3), vector pDEST15
T1 sequence (Q96RI1 187-472 isoform Q96RI1-2): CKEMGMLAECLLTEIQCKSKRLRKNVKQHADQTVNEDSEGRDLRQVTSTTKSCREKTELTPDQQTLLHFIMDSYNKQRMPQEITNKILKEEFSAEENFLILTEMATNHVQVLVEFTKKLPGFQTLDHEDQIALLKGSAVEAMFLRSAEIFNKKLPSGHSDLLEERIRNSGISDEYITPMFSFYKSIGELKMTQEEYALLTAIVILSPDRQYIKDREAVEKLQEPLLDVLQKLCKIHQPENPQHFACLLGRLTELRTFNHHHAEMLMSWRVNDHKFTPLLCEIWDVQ
Protocol: Determination of a ligand mediated cofactor peptide interaction to quantify ligand binding to the nuclear receptor FXR was performed as follows.
Preparation of human FXR alpha ligand binding domain: The human FXRalpha LBD was expressed in E. coli strain BL21(DE3) as an N-terminally GST tagged fusion protein. The DNA encoding the FXR ligand binding domain was cloned into vector pDEST15 (Invitrogen). Expression was under control of an IPTG inducible T7 promoter. The amino acid boundaries of the ligand binding domain were amino acids 187-472 of Database entry NM_005123 (RefSeq). Expression and purification of the FXR-LBD: An overnight preculture of a transformed E. coli strain was diluted 1:20 in LB-Ampicillin medium and grown at 30° C. to an optical density of OD600=0.4-0.6. Gene expression was then induced by addition of 0.5 mM IPTG. Cells were incubated an additional 6 h at 30° C., 180 rpm. Cells were collected by centrifugation (7000×g, 7 min, rt). Per liter of original cell culture, cells were resuspended in 10 mL lysis buffer (50 mM Glucose, 50 mM Tris pH 7.9, 1 mM EDTA and 4 mg/mL lysozyme) and left on ice for 30 min. Cells were then subjected to sonication and cell debris removed via centrifugation (22000×g, 30 min, 4° C.). Per 10 mL of supernatant 0.5 mL prewashed Glutathione 4B sepharose slurry (Qiagen) was added and the suspension kept slowly rotating for 1 h at 4° C. Glutathione 4B sepharose beads were pelleted by centrifugation (2000×g, 15 sec, 4° C.) and washed twice in wash buffer (25 mM Tris, 50 mM KCl, 4 mM MgCl2 and 1M NaCl). The pellet was resuspended in 3 mL elution buffer per liter of original culture (elution buffer: 20 mM Tris, 60 mM KCl, 5 mM MgCl2 and 80 mM glutathione added immediately prior to use as powder). The suspension was left rotating for 15 min at 4° C., the beads pelleted and eluted again with half the volume of elution buffer than the first time. The eluates were pooled and dialysed overnight in 20 mM Hepes buffer (pH 7.5) containing 60 mM KCl, 5 mM MgCl2 as well as 1 mM dithiothreitol and 10% (v/v) glycerol. The protein was analysed by SDS-Page.
The method measures the ability of putative ligands to modulate the interaction between the purified bacterial expressed FXR ligand binding domain (LBD) and a synthetic biotinylated peptide based on residues 676-700 of SRC-1 (LCD2, 676-700). The sequence of the peptide used was B-[…]-COOH (SEQ ID NO: 1) where the N-terminus was biotinylated (B). The ligand binding domain (LBD) of FXR was expressed as fusion protein with GST in BL-21 cells using the vector pDEST15. Cells were lysed by sonication, and the fusion proteins purified over glutathione sepharose (Pharmacia) according to the manufacturers instructions. For screening of compounds for their influence on the FXR-peptide interaction, the Perkin Elmer LANCE technology was applied. This method relies on the binding dependent energy transfer from a donor to an acceptor fluorophor attached to the binding partner of interest. For ease of handling and reduction of background from compound fluorescence LANCE technology makes use of generic fluorophore labels and time resolved detection Assays were done in a final volume of 25 μL in a 384 well plate, in a Tris-based buffer (20 mM Tris-HCl pH 7.5; 60 mM KCl, 5 mM MgCl2; 35 ng/μL BSA), containing 20-60 ng/well recombinantly expressed FXR-LBD fused to GST, 200-600 nM N-terminally biotinylated peptide, representing SRC1 aminoacids 676-700, 200 ng/well Streptavidin-xlAPC conjugate (Prozyme) and 6-10 ng/well Eu W1024-antiGST (Perkin Elmer). DMSO content of the samples was kept at 1%. After generation of the assay mix and diluting the potentially FXR modulating ligands, the assay was equilibrated for 1 h in the dark at rt in FIA-plates black 384 well (Greiner). The LANCE signal was detected by a Perkin Elmer VICTOR2V™ Multilabel Counter. The results were visualized by plotting the ratio between the emitted light at 665 and 615 nm. […]

[2] = target: T2, FXR ligand binding domain (Homo sapiens, UniProt Q96RI1); assay: Mammalian one hybrid (M1H) Gal4 reporter gene assay in HEK293 cells; assay type: cell-based; details: Gal4-FXR-LBD, luciferase reporter, 16 h
T2 construct: expressed in transfected cells; host or cells: HEK293 (DSMZ), transient transfection with pCMV-BD-FXR-LBD, pFR-Luc and pRL-CMV
T2 sequence (Q96RI1 187-472 isoform Q96RI1-2): T1 sequence (Q96RI1 187-472 isoform Q96RI1-2)
Protocol: Determination of a ligand mediated Gal4 promoter driven transactivation to quantify ligand binding mediated activation of FXR was performed as follows.
The cDNA part encoding the FXR ligand binding domain was cloned into vector pCMV-BD (Stratagene) as a fusion to the yeast GAL4 DNA binding domain under the control of the CMV promoter. The amino acid boundaries of the ligand binding domain were amino acids 187-472 of Database entry NM_005123 (RefSeq). The plasmid pFR-Luc (Stratagene) was used as the reporter plasmid, containing a synthetic promoter with five tandem repeats of the yeast GAL4 binding sites, driving the expression of the Photinus pyralis (American firefly) luciferase gene as the reporter gene. In order to improve experimental accuracy the plasmid pRL-CMV (Promega) was cotransfected. pRL-CMV contains the constitutive CMV promoter, controlling the expression of the Renilla reniformis luciferase. All Gal4 reporter gene assays were done in HEK293 cells (obtained from DSMZ, Braunschweig, Germany) grown in MEM with L-Glutamine and Earle's BSS supplemented with 10% fetal bovine serum, 0.1 mM nonessential amino acids, 1 mM sodium pyruvate, and 100 units Penicilin/[…] per mL at 37° C. in 5% CO2. Medium and supplements were obtained from Invitrogen. For the assay, […] cells were plated per well in 96 well plates in 100 μL per well MEM without Phenol Red and L-Glutamine and with Earle's BSS supplemented with 10% charcoal/dextran treated FBS (HyClone, South Logan, Utah), 0.1 mM nonessential amino acids, 2 mM glutamine, 1 mM sodium pyruvate, and 100 units Penicilin/[…] per mL, incubated at 37° C. in 5% CO2. The following day the cells were >90% confluence. Medium was removed and cells were transiently transfected using 20 μL per well of an OptiMEM-polyethylene-imine-based transfection-reagent (OptiMEM, Invitrogen; Polyethyleneimine, Aldrich Cat No. 40, 827-7) including the three plasmids described above. MEM with the same composition as used for plating cells was added 2-4 h after addition of transfection mixture. Then compound stocks, prediluted in MEM were added (final vehicle concentration not exceeding 0.1%). Cells were incubated for additional 16 h before firefly and renilla luciferase activities were measured sequentially in the same cell extract using a Dual-Light-Luciferase-Assay system (Dyer et al., Anal. Biochem. 2000, 282, 158-161). All experiments were done in triplicates.

FGF19 = assay: In vivo pharmacodynamics in cynomolgus monkey: plasma FGF19 (ELISA); details: oral
Description: (§1) Each dosing group consisted of three male Cynomolgus monkeys.

[3] = Plasma drug exposure in cynomolgus monkey after oral dosing; assay type: in vivo
Description: as §1

SMILES	EC50 [1] [nM]	EC50 [2] [nM]	Plasma FGF19 response to increasing doses (FGF19; 3 to 300 mg/kg)	Plasma FGF19 Cmax (FGF19; highest dose (300 mg/kg)) [pg/mL]	Maximal AUC, compared between the two compounds ([3]; 300 mg/kg)	Plasma exposure with increasing doses ([3]; 3 to 300 mg/kg)
Cc1onc(-c2c(Cl)cc(F)cc2Cl)c1COc1ccc(C2(O)CN(c3ncc(C(=O)O)cc3F)C2)c(Cl)c1 [Example 4, 6-(3-(2-chloro-4-((3-(2,6-dichloro-4-fluorophenyl)-5-methylisoxazol-4-yl)methoxy)phenyl)-3-hydroxyazetidin-1-yl)-5-fluoronicotinic Acid]	35	176	–	–	–	–
O=C(NCCS(=O)(=O)O)c1cnc(N2CC(O)(c3ccc(OCc4c(-c5c(Cl)cc(F)cc5Cl)noc4C4CC4)cc3Cl)C2)c(F)c1 [Example 7, 2-(6-(3-(2-chloro-4-((5-cyclopropyl-3-(2,6-dichloro-4-fluorophenyl)isoxazol-4-yl)methoxy)phenyl)-3-hydroxyazetidin-1-yl)-5-fluoronicotinamido)ethane-1-sulfonic Acid]	6.9	1700	–	–	–	–
COc1ncc(C(=O)O)cc1[C@H]1C[C@](O)(c2ccc(OCc3c(-c4c(Cl)cc(F)cc4Cl)noc3C3CC3)cc2Cl)C1 [Example 6, 5-((1S,3S)-3-(2-chloro-4-((5-cyclopropyl-3-(2,6-dichloro-4-fluorophenyl)isoxazol-4-yl)methoxy)phenyl)-3-hydroxycyclobutyl)-6-methoxynicotinic Acid]	49	353	–	–	–	–
O=C(O)c1ccnc(N2CC(O)(c3ccc(OCc4c(-c5c(Cl)cc(F)cc5Cl)noc4C4CC4)cc3Cl)C2)c1 [Example 2, 2-(3-(2-chloro-4-((5-cyclopropyl-3-(2,6-dichloro-4-fluorophenyl)isoxazol-4-yl)methoxy)phenyl)-3-hydroxyazetidin-1-yl)isonicotinic Acid]	25	831	–	–	–	–
O=C(O)c1ccnc(N2CC(O)(c3ccc(OCc4c(-c5ccc(F)cc5F)noc4C4CC4)cc3Cl)C2)c1 [Example 1, 2-(3-(2-chloro-4-((5-cyclopropyl-3-(2,4-difluorophenyl)isoxazol-4-yl)methoxy)phenyl)-3-hydroxyazetidin-1-yl)isonicotinic Acid]	263	3000	–	–	–	–
O=C(O)c1cnc(N2CC(O)(c3ccc(OCc4c(C5CC5)cnn4-c4c(Cl)cc(F)cc4Cl)cc3Cl)C2)c(F)c1 [Example 5, 6-(3-(2-chloro-4-((4-cyclopropyl-1-(2,6-dichloro-4-fluorophenyl)-1H-pyrazol-5-yl)methoxy)phenyl)-3-hydroxyazetidin-1-yl)-5-fluoronicotinic Acid]	18	8.6	–	–	–	–
O=C(O)CNC(=O)c1cnc(N2CC(O)(c3ccc(OCc4c(-c5c(Cl)cc(F)cc5Cl)noc4C4CC4)cc3Cl)C2)c(F)c1 [Example 8, (6-(3-(2-chloro-4-((5-cyclopropyl-3-(2,6-dichloro-4-fluorophenyl)isoxazol-4-yl)methoxy)phenyl)-3-hydroxyazetidin-1-yl)-5-fluoronicotinoyl)glycine]	8.1	1260	–	–	–	–
O=C(O)c1cnc(N2CC(O)(c3ccc(OCc4c(-c5c(Cl)cc(F)cc5Cl)noc4C4CC4)cc3Cl)C2)c(F)c1 [Example 3, 6-(3-(2-chloro-4-((5-cyclopropyl-3-(2,6-dichloro-4-fluorophenyl)isoxazol-4-yl)methoxy)phenyl)-3-hydroxyazetidin-1-yl)-5-fluoronicotinic Acid]	7.4	3.8	dose-dependently increased plasma FGF19	16000	comparable	Dose-dependent increases in plasma exposure
